Results: the supplement of paper PMC10307832

Assays:
Assay in all cases: relative viability (nuclei count vs DMSO), 5 days (fraction); higher = more cells survive
Etoposide + Dasatinib = compound: COc1cc([C@@H]2c3cc4c(cc3[C@@H](O[C@@H]3O[C@@H]5CO[C@@H](C)O[C@H]5[C@H](O)[C@H]3O)[C@H]3COC(=O)[C@H]23)OCO4)cc(OC)c1O [Etoposide] + Cc1nc(Nc2ncc(C(=O)Nc3c(C)cccc3Cl)s2)cc(N2CCN(CCO)CC2)n1 [Dasatinib] (partner 0.075 µM)
Procedure, shortened: (§1)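 Nuclei were stained with Hoechst during a one-step fixation (final 0.05% Triton X-100, 1% formaldehyde, 1 ug/ml Hoechst) carried out 5 days after dosing, then counted on 4× images. The cells, lung cancer lines in 1536-well plates, had been dosed by pin tool the day after seeding with one drug alone or a fixed anchor-drug dose plus five library-drug doses (not always all listed) in √10 steps. Relative viability is the nuclei count in treated wells divided by that in vehicle wells, and each value is the median of duplicate plates.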

Bleomycin + Pictilisib = compound: CC1=C(N=C(N=C1N)[C@H](CC(=O)N)NC[C@@H](C(=O)N)N)C(=O)N[C@@H]([C@H](C2=CN=CN2)OC3C(C(C(C(O3)CO)O)O)OC4C(C(C(C(O4)CO)O)OC(=O)N)O)C(=O)N[C@H](C)[C@H]([C@H](C)C(=O)N[C@@H]([C@@H](C)O)C(=O)NCCC5=NC(=CS5)C6=NC(=CS6)C(=O)NCCC[S+](C)C)O [Bleomycin] + CS(=O)(=O)N1CCN(Cc2cc3nc(-c4cccc5[nH]ncc45)nc(N4CCOCC4)c3s2)CC1 [Pictilisib] (partner 1 µM); details: main component drawn
Procedure, shortened: as §1

Bleomycin + Olaparib = compound: CC1=C(N=C(N=C1N)[C@H](CC(=O)N)NC[C@@H](C(=O)N)N)C(=O)N[C@@H]([C@H](C2=CN=CN2)OC3C(C(C(C(O3)CO)O)O)OC4C(C(C(C(O4)CO)O)OC(=O)N)O)C(=O)N[C@H](C)[C@H]([C@H](C)C(=O)N[C@@H]([C@@H](C)O)C(=O)NCCC5=NC(=CS5)C6=NC(=CS6)C(=O)NCCC[S+](C)C)O [Bleomycin] + O=C(c1cc(Cc2n[nH]c(=O)c3ccccc23)ccc1F)N1CCN(C(=O)C2CC2)CC1 [Olaparib] (partner 8 µM); details: main component drawn
Procedure, shortened: as §1

Bleomycin + Bortezomib = compound: CC1=C(N=C(N=C1N)[C@H](CC(=O)N)NC[C@@H](C(=O)N)N)C(=O)N[C@@H]([C@H](C2=CN=CN2)OC3C(C(C(C(O3)CO)O)O)OC4C(C(C(C(O4)CO)O)OC(=O)N)O)C(=O)N[C@H](C)[C@H]([C@H](C)C(=O)N[C@@H]([C@@H](C)O)C(=O)NCCC5=NC(=CS5)C6=NC(=CS6)C(=O)NCCC[S+](C)C)O [Bleomycin] + CC(C)C[C@H](NC(=O)[C@H](Cc1ccccc1)NC(=O)c1cnccn1)B(O)O [Bortezomib] (partner 0.002 µM); details: main component drawn
Procedure, shortened: as §1

Cell Line | relative viability (Etoposide + Dasatinib; first compound 0.01 µM) | relative viability (Etoposide + Dasatinib; first compound 0.03162 µM) | relative viability (Etoposide + Dasatinib; first compound 0.1 µM) | relative viability (Etoposide + Dasatinib; first compound 0.3162 µM) | relative viability (Etoposide + Dasatinib; first compound 1 µM) | relative viability (Bleomycin + Pictilisib; first compound 0.01 µM) | relative viability (Bleomycin + Pictilisib; first compound 0.03162 µM) | relative viability (Bleomycin + Pictilisib; first compound 0.1 µM) | relative viability (Bleomycin + Pictilisib; first compound 0.3162 µM) | relative viability (Bleomycin + Pictilisib; first compound 1 µM) | relative viability (Bleomycin + Olaparib; first compound 0.01 µM) | relative viability (Bleomycin + Olaparib; first compound 0.03162 µM) | relative viability (Bleomycin + Olaparib; first compound 0.1 µM) | relative viability (Bleomycin + Olaparib; first compound 0.3162 µM) | relative viability (Bleomycin + Olaparib; first compound 1 µM) | relative viability (Bleomycin + Bortezomib; first compound 0.01 µM) | relative viability (Bleomycin + Bortezomib; first compound 0.03162 µM) | relative viability (Bleomycin + Bortezomib; first compound 0.1 µM) | relative viability (Bleomycin + Bortezomib; first compound 0.3162 µM) | relative viability (Bleomycin + Bortezomib; first compound 1 µM)
NCI-H2087 | 0.672 | 1.06 | 0.653 | 0.553 | 0.166 | 0.766 | 0.874 | 0.775 | 0.236 | 0.247 | 0.366 | 0.46 | 0.442 | 0.182 | 0.145 | 0.6 | 0.785 | 0.645 | 0.133 | 0.176
LXF-289 | 0.209 | 0.217 | 0.231 | 0.206 | 0.0795 | 0.713 | 0.799 | 0.685 | 0.358 | 0.15 | 0.887 | 0.831 | 0.864 | 0.168 | 0.127 | 0.861 | 0.944 | 0.775 | 0.27 | 0.135
NCI-H520 | 0.22 | 0.239 | 0.181 | 0.208 | 0.269 | 0.298 | 0.301 | 0.287 | 0.256 | 0.238 | 0.339 | 0.322 | 0.325 | 0.251 | 0.268 | 0.596 | 0.33 | 0.708 | 0.142 | 0.293
NCI-H2009 | 0.288 | 0.313 | 0.218 | 0.282 | 0.207 | 0.768 | 0.672 | 0.749 | 0.324 | 0.405 | 0.586 | 0.709 | 0.62 | 0.453 | 0.268 | 0.852 | 0.98 | 1.01 | 0.358 | 0.441
201T | 0.639 | 0.655 | 0.524 | 0.548 | 0.477 | 0.686 | 0.59 | 0.622 | 0.634 | 0.512 | 0.759 | 0.763 | 0.715 | 0.507 | 0.411 | 1.12 | 1 | 1.01 | 0.921 | 0.827
NCI-H2347 | 0.365 | 0.294 | 0.293 | 0.255 | 0.249 | 0.605 | 0.599 | 0.532 | 0.271 | 0.575 | 0.581 | 0.573 | 0.466 | 0.45 | 0.413 | 0.915 | 1.05 | 0.889 | 0.7 | 0.476
LOU-NH91 | 0.579 | 0.601 | 0.492 | 0.566 | 0.395 | 0.53 | 0.493 | 0.432 | 0.392 | 0.325 | 0.604 | 0.521 | 0.432 | 0.342 | 0.28 | 0.493 | 0.439 | 0.355 | 0.335 | 0.348
NCI-H2085 | 0.219 | 0.241 | 0.226 | 0.23 | 0.197 | 0.427 | 0.386 | 0.364 | 0.29 | 0.293 | 0.665 | 0.716 | 0.47 | 0.376 | 0.383 | 0.768 | 0.875 | 0.707 | 0.377 | 0.366
COR-L23 | 0.398 | 0.461 | 0.428 | 0.26 | 0.161 | 0.705 | 0.7 | 0.433 | 0.129 | 0.0958 | 0.253 | 0.188 | 0.133 | 0.0874 | 0.0995 | 0.669 | 0.774 | 0.355 | 0.136 | 0.102
BEN | 0.353 | 0.416 | – | 0.304 | 0.351 | 0.573 | 0.57 | 0.54 | 0.389 | 0.435 | 0.97 | 1.03 | 0.899 | 0.809 | 0.733 | 0.909 | 0.868 | 0.967 | 0.578 | 0.609
ChaGo-K-1 | 0.479 | 0.59 | 0.51 | 0.441 | 0.146 | – | 0.728 | 0.655 | 0.406 | 0.217 | 0.361 | 0.411 | 0.348 | 0.28 | 0.229 | – | 1.01 | 0.768 | 0.393 | 0.306
NCI-H441 | 0.58 | 0.677 | 0.398 | 0.285 | 0.147 | – | 0.439 | 0.482 | 0.316 | 0.267 | 0.539 | 0.505 | 0.399 | 0.338 | 0.226 | – | 0.886 | 0.458 | 0.226 | 0.211
NCI-H596 | 0.608 | 0.657 | 0.543 | 0.647 | 0.507 | 0.379 | 0.419 | 0.329 | 0.268 | 0.261 | 0.599 | 0.515 | 0.515 | 0.371 | 0.438 | 0.662 | 0.686 | 0.637 | 0.402 | 0.521
ABC-1 | 0.535 | 0.597 | 0.336 | 0.248 | 0.207 | 0.68 | 0.689 | 0.719 | 0.333 | 0.286 | 0.851 | 1.04 | 0.849 | 0.818 | 0.232 | 0.325 | 0.311 | 0.275 | 0.195 | 0.242
NCI-H1666 | 0.796 | 0.802 | 0.594 | 0.361 | 0.293 | 0.428 | 0.375 | 0.391 | 0.183 | 0.256 | 0.65 | 0.692 | 0.644 | 0.54 | 0.599 | 0.622 | 0.427 | 0.434 | 0.31 | 0.261
NCI-H1993 | 0.619 | 0.712 | 0.478 | 0.546 | 0.376 | 0.647 | 0.807 | 0.794 | 0.681 | 0.688 | 0.763 | 0.728 | 0.645 | 0.353 | 0.43 | 1.2 | 1.06 | 0.95 | 0.539 | 0.548
NCI-H1975 | 0.336 | 0.426 | 0.32 | 0.348 | 0.214 | 0.288 | 0.256 | 0.258 | 0.188 | 0.134 | 0.565 | 0.387 | 0.394 | 0.169 | 0.181 | 0.27 | 0.342 | 0.27 | 0.16 | 0.142
